According to ChEMBL document CHEMBL5260832, “Hepatoprotective natural triterpenoids” (Eur J Med Chem, 2018):

What was measured:
HepG2 [1] = test: Hepatoprotective activity against H2O2-induced human HepG2 cells assessed as increase in AST level; assay type: functional
HepG2 [2] = test: Hepatoprotective activity against H2O2-induced human HepG2 cells assessed as increase in ALT level; assay type: functional
Hepatocyte [3] = test: Hepatoprotective activity against H2O2-induced cell damage in rat hepatocyte assessed as reduction in cell growth; assay type: functional, cell-based
Hepatocyte [4] = test: Hepatoprotective activity against D-GaIN/TNFalpha-induced cell death in mouse hepatocyte at 50 uM relative to control; assay type: functional
Hepatocyte [5] = test: Hepatoprotective activity against D-GaIN/TNFalpha-induced cell death in mouse hepatocyte at 100 uM relative to control; assay type: functional, cell-based; details: dose 100 µM
Hepatocyte [6] = test: Hepatoprotective activity against D-GaIN/TNFalpha-induced cell death in mouse hepatocyte at 200 uM relative to control; assay type: functional
Hepatocyte [7] = test: Hepatoprotective activity against D-GaIN/TNFalpha-induced cell death in mouse hepatocyte at 25 uM relative to control; assay type: functional
Mus musculus = test: Hepatoprotective activity against D-GaIN/CCl4 induced liver injury mouse model assessed as reduction in GPT level at 1.0 microg/ml, iv relative to control; assay type: functional; parameters: scale not given: the % may be the effect or the level left; details: dose 1 µg/ml
Hepatocyte [8] = test: Hepatoprotective activity against D-GaIN/TNFalpha-induced cell death in mouse hepatocytes at 50 uM assessed as inhibition of cell death relative to control; assay type: functional; parameters: scale not given: the % may be the effect or the level left
Hepatocyte [9] = test: Hepatoprotective activity against D-GaIN/TNFalpha-induced cell death in mouse hepatocyte at 100 uM; assay type: functional, cell-based
Rattus norvegicus = test: Hepatoprotective activity in GaIN-induced rat model of liver injury assessed as reduction in ALT level at 4 mg/kg relative to control; assay type: functional; parameters: scale not given: the % may be the effect or the level left
[10] = Hepatoprotective activity against D-Galactosamine-induced toxicity in rat WB-F344 cells assessed as cell survival rate at 10 uM relative to control; assay type: functional
[11] = Hepatoprotective activity against D-GaIN - induced toxicity in rat WB-F344 cells assessed as inhibition of cell growth relative to control; assay type: functional; parameters: scale not given: the % may be the effect or the level left
[12] = Hepatotoxicity in rat assessed as reduction in GPT level at 1.0 mg/mL measured after 48 hrs (reference value: 291 IU/L); assay type: toxicity; details: in vivo
[13] = Hepatotoxicity in rat assessed as reduction in GPT level at 0.01 mg/mL measured after 48 hrs (reference value: 291 IU/L); assay type: toxicity; details: in vivo
[14] = Cytotoxicity against human HepG2 cells assessed as reduction in cell viability by SRB assay; assay type: toxicity, cell-based

SMILES: CC(=O)[C@H]1CC(=O)[C@@]2(C)C3=C(C(=O)C[C@]12C)[C@@]1(C)CC[C@H](O)C(C)(C)[C@@H]1C[C@@H]3O [LUCIDONE A]
- Activity (HepG2 [1]): 21.18 U/L
- Activity (HepG2 [2]): 17.46 U/L

SMILES: CC(=O)N[C@@H](CS)C(=O)O [ACETYLCYSTEINE]
- EC50 (Hepatocyte [3]): 106 µM

SMILES: C[C@@]1(CO)CC[C@]2(C(=O)O[C@@H]3O[C@H](CO)[C@@H](O)[C@H](O)[C@H]3O)CC[C@]3(C)[C@H](C=C[C@@H]4[C@@]5(C)C[C@@H](O)[C@H](O)[C@@](C)(CO)[C@@H]5CC[C@]43C)[C@H]2C1
- Activity (Hepatocyte [4]): 8%
- Activity (Hepatocyte [5]): 8%
- Activity (Hepatocyte [6]): 8%
- Activity (Hepatocyte [7]): 15.1%

SMILES: CC1(C)CC[C@]2(C(=O)O[C@@H]3O[C@H](CO)[C@@H](O)[C@H](O)[C@H]3O)CC[C@]3(C)[C@H](C=C[C@@H]4[C@@]5(C)C[C@@H](O)[C@H](O)[C@@](C)(CO)[C@@H]5CC[C@]43C)[C@H]2[C@@H]1O
- Activity (Hepatocyte [4]): 8%
- Activity (Hepatocyte [5]): 8%
- Activity (Hepatocyte [6]): 8%

SMILES: C/C(=C\CC[C@@H](C)[C@H]1CC[C@@]2(C)C3=CC[C@H]4C(C)(C)[C@@H](O)CC[C@]4(C)C3=CC[C@]12C)CO [GANODEROL B]
- Activity (HepG2 [1]): 26.42 U/L
- Activity (HepG2 [2]): 18.97 U/L

SMILES: CO[C@@H]1C=C2[C@@H]3CC(C)(C)C(=O)C[C@]3(C(=O)O)CC[C@@]2(C)[C@]2(C)CCC3C(C)(C)C(=O)CC[C@]3(C)[C@@H]12 (stereo not given in full)
- Activity (Mus musculus): 48%

SMILES: CC1=C(C)[C@H]2C3=CC[C@@H]4[C@@]5(C)C[C@@H](O)[C@H](O)[C@@](C)(CO)[C@@H]5CC[C@@]4(C)[C@]3(C)CC[C@@]2(C(=O)O[C@@H]2O[C@H](CO)[C@@H](O)[C@H](O)[C@H]2O)CC1
- Activity (Hepatocyte [8]): 8.3%
- IC50 (Hepatocyte [9]): 33.6 µM

SMILES: CC1=C[C@]2(C=C([C@H]3CC[C@@]4(C)[C@@H]5CC[C@H]6C(C)(C)C(=O)C=C[C@]67C[C@]57CC[C@]34C)C(=O)N2)OC1=O
- EC50 (Hepatocyte [3]): 167 µM

SMILES: COC(=O)[C@]12CC[C@@H](C)[C@H](C)[C@H]1C1=CC[C@@H]3[C@@]4(C)C[C@@H](OC)C(=O)[C@@](C)(C=O)[C@@H]4CC[C@@]3(C)[C@]1(C)CC2
- Activity (Rattus norvegicus): 52.3%

SMILES: CC1(C)CC[C@]2(C(=O)O[C@@H]3O[C@H](CO)[C@@H](O)[C@H](O)[C@H]3O)CC[C@]3(C)C(=CC[C@@H]4[C@@]5(C)C[C@@H](O)[C@@H](O)[C@](C)(CO)[C@@H]5CC[C@]43C)[C@@H]2[C@@H]1O
- Activity [10]: 61%
- Activity [11]: 61%

SMILES: CC1(C)CC[C@]2(C(=O)O[C@@H]3O[C@H](CO)[C@@H](O)[C@H](O)[C@H]3O)CC[C@]3(C)C(=CC[C@@H]4[C@@]5(C)CC[C@H](O[C@@H]6O[C@H](CO)[C@@H](O)[C@H](O)[C@H]6O)C(C)(C(=O)O)[C@@H]5CC[C@]43C)[C@@H]2C1 (stereo not given in full)
- Activity [12]: 279 IU/L
- Activity [13]: 271 IU/L

SMILES: C[C@@]1(CO)CC[C@]2(C(=O)O[C@@H]3O[C@H](CO[C@@H]4O[C@H](CO)[C@@H](O)[C@H](O)[C@H]4O)[C@@H](O)[C@H](O)[C@H]3O)CC[C@]3(C)C(=CC[C@@H]4[C@@]5(C)CC[C@H](O[C@@H]6O[C@H](CO)[C@@H](O)[C@H](O)[C@H]6O)[C@@](C)(C(=O)O)[C@@H]5CC[C@]43C)[C@@H]2C1
- Activity [13]: 215 IU/L

SMILES: CC1=C2C3=CC[C@@H]4[C@@]5(C)C[C@@H](O)[C@H](O)[C@@](C)(CO)[C@@H]5[C@H](O)C[C@@]4(C)[C@]3(C)CC[C@@]2(C(=O)O[C@@H]2O[C@H](CO)[C@@H](O)[C@H](O)[C@H]2O)CC[C@H]1C [QUADRANOSIDE V]
- Activity (Hepatocyte [8]): 67.5%
- IC50 (Hepatocyte [9]): 30.2 µM

SMILES: CC1=C[C@@]2(C[C@H]([C@H]3CC[C@@]4(C)[C@@H]5CC[C@H]6C(C)(C)[C@@H](O)C=C[C@@]67C[C@@]57CC[C@]34C)[C@H](O)O2)OC1=O
- EC50 [14]: 37.9 µM
